Experimental data from EP2608671B1, “COMPOUNDS FOR TREATMENT OF CANCER” (Gtx, Inc., priority 2010, dated 2012).
Like-named read-outs stand apart in the source and are kept apart here.

Key:
LNCaP = test: cells; details: Homo sapiens
DU 145 = test: cells; details: Homo sapiens
B16-F1 = test: SRB cell growth inhibition (cytotoxicity) assay; type: cell-based, mouse
Text: (§1) The only compounds which belong to the invention are the ones falling under the scope of formula (XI).

PPC-1 = test: cells; details: Homo sapiens
A375 = test: SRB cell growth inhibition (cytotoxicity) assay; type: cell-based, human
PC-3 = test: cells; details: Homo sapiens
Text: as §1
Cells were stained with SRB solution.
Cells. […] Cells between the third and fifth passages were used for experiments.
Cell growth inhibition studies. […] Cells were stained with sulphorhodamine B (SRB) solution.

WM-164 = test: SRB cell growth inhibition (cytotoxicity) assay; type: cell-based, human; details: Homo sapiens
[1] = 96 h, read-out: IC50 ± SEM (nM), LNCaP
[2] = DU-145, 96 h, read-out: IC50 ± SEM (nM), DU 145
[3] = Mus musculus, B16-F1; read-out: IC50 ± SEM (nM), B16-F1
[4] = PPC-1, 96 h, read-out: IC50 ± SEM (nM), PPC-1
[5] = Homo sapiens, A-375, 96 h; read-out: IC50 ± SEM (nM), A375
[6] = PC-3, 96 h, read-out: IC50 ± SEM (nM), PC-3
[7] = WM164, SRB assay, 96 h, Table 2, read-out: IC50 ± SEM (nM), WM-164
[8] = Mus musculus, B16-F1, read-out: IC50 ± SEM (nM), B16-F1
[9] = Homo sapiens, A-375, 96 h, read-out: IC50 ± SEM (nM), A375
[10] = WM164, 96 h, read-out: IC50 ± SEM (nM), WM-164

SMILES	IC50 (LNCaP; read-out: IC50 ±SEM (nM), LNCaP) [nM]	IC50 (DU 145; DU-145, read-out: IC50 ±SEM (nM), DU 145) [nM]	IC50 (B16-F1; Mus musculus, B16-F1; Table 6; read-out: IC50 ±SEM (nM), B16-F1) [nM]	IC50 (PPC-1; PPC-1, read-out: IC50 ±SEM (nM), PPC-1) [nM]	IC50 (A375; Homo sapiens, A-375; Table 6; read-out: IC50 ±SEM (nM), A375) [nM]	IC50 (PC-3; PC-3, read-out: IC50 ±SEM (nM), PC-3) [nM]	IC50 (WM-164; WM164, Table 6, read-out: IC50 ±SEM (nM), WM164) [nM]	IC50 (LNCaP; [1]) [nM]	IC50 (DU 145; [2]) [nM]	IC50 (B16-F1; [3]) [nM]	IC50 (PPC-1; [4]) [nM]	IC50 (A375; [5]) [nM]	IC50 (PC-3; [6]) [nM]	IC50 (WM-164; [7]) [nM]	IC50 (B16-F1; [8]) [nM]	IC50 (A375; [9]) [nM]	IC50 (WM-164; [10]) [nM]
COc1cc(C(=O)c2cc(-c3ccccc3)n[nH]2)cc(OC)c1OC [1k, (3-Phenyl-1H-pyrazol-5-yl)(3,4,5-trimethoxyphenyl)methanone]	101	140	245	84	100	101	220										
COc1cc(C(=C(C)C)c2csc(-c3ccccc3)n2)cc(OC)c1OC [2a, 4-(2-Methyl-1-(3,4,5-trimethoxyphenyl)prop-1-enyl)-2-phenylthiazole]								1390	2650	3800 ± 1300	2040	1900 ± 800	2470	3700 ± 1200			
COc1cc(/C(=C\C#N)c2csc(-c3ccccc3)n2)cc(OC)c1OC [2c-cis, (E)-3-(2-phenylthiazol-4-yl)-3-(3,4,5-trimethoxyphenyl)acrylonitrile]								1990	~10000		~10000		~10000		1200 ± 300	1200 ± 400	1000 ± 200
COc1cc(/C(=C/C#N)c2csc(-c3ccccc3)n2)cc(OC)c1OC [2c-trans, (Z)-3-(2-phenylthiazol-4-yl)-3-(3,4,5-trimethoxyphenyl)acrylonitrile]								580	2280		900		890		5400 ± 2100	4600 ± 1500	4900 ± 1300
CO/N=C(/c1cc(OC)c(OC)c(OC)c1)c1csc(-c2ccccc2)n1 [2f-cis, (Z)-(2-Phenylthiazol-4-yl)(3,4,5-trimethoxyphenyl)methanone O-methyl oxime]								> 10000	> 10000	3800 ± 1600	> 10000	2900 ± 1200	> 10000	3400 ± 1800			
CO/N=C(\c1cc(OC)c(OC)c(OC)c1)c1csc(-c2ccccc2)n1 [2f-trans, (E)-(2-Phenylthiazol-4-yl)(3,4,5-trimethoxyphenyl)methanone O-methyl oxime]								> 10000	> 10000	> 10000	> 10000	> 10000	> 10000	> 10000			
COc1cc(-c2csc(-c3ccccc3)n2)cc(OC)c1OC [2i, 2-Phenyl-4-(3,4,5-trimethoxyphenyl)thiazole]								> 10000	> 10000	> 10000	> 10000	> 10000	> 10000	> 10000			
COc1cc(/C=C/c2csc(-c3ccccc3)n2)cc(OC)c1OC [3b, (E)-2-Phenyl-4-(3,4,5-trimethoxystyryl)thiazole]								> 10000	> 10000		> 10000		> 10000		32800 ± 13000	> 10000	30800 ± 12000
COc1cc(Sc2cccc(-c3ccccc3)c2)cc(OC)c1OC [4a, Biphenyl-3-yl(3,4,5-trimethoxyphenyl)sulfane]								300 ± 200	> 10000	2400 ± 900	2300 ± 100	11600 ± 400	> 10000	2000			
COc1cc(S(=O)(=O)c2cccc(-c3ccccc3)c2)cc(OC)c1OC [4b, 3-(3,4,5-Trimethoxyphenylsulfonyl)biphenyl]								> 10000	> 10000	> 10000	> 10000	> 10000	> 10000	> 10000			
